Tests used:
E. coli WT RNAP = biological target: T1, E. coli WT RNAP (Escherichia coli, UniProt P0A8V2); experiment: biochemical
T1 construct: made in house

[1] = biological target: T2, E. coli D516V (RIF^R) RNAP (Escherichia coli, UniProt P0A8V2, D516V); experiment: biochemical
T2 construct: made in house

[2] = biological target: T3, E. coli S531L (RIF^R) RNAP (Escherichia coli, UniProt P0A8V2, S531L); experiment: biochemical
T3 construct: made in house

VERO cells (ATCC CRL-81) = experiment: Vero cell toxicity; type: cell-based; conditions: Chlorocebus sabaeus, Vero; 72 hours exposure
Experimental: Cytotoxicity for a mammalian cell line was determined by exposing VERO cells (ATCC CRL-81) to serial dilutions of test compounds for 72 hours, followed by addition of resazurin and measurement of fluorescence after 4 hours incubation (Choules, et al., Antimnicrob. Agents Chemother. 2019, 63, e02204-02218).

DPX2 cells = conditions: for DPX2 Viability @ 6.25 μM: 24 h; for DPX2 Viability @ 25 μM: human
MTB H37Rv ATCC 27294 = experiment: MIC, microplate Alamar Blue assay (MABA); type: cell-based, Mycobacterium tuberculosis; conditions: for MIC / MIC90: Mycobacterium tuberculosis, MTB H37Rv ATCC 27294, microplate Alamar Blue assay, lowest concentration giving ≥90% reduction in fluorescence; for MIC: read-out: MIC90 MABA
M. tuberculosis H37Rv = experiment: Minimum bactericidal concentration (MBC, CFU Assay); type: cell-based, Mycobacterium tuberculosis; conditions: for MBC99 Day 7 (CFU Assay) MBC99 Rel to RMP: CFU Assay MBC99 relative to rifampin (RMP = 1); for MBC: Mycobacterium tuberculosis, 168 h, Day 7, M. tuberculosis H37Rv, ≥99% reduction in colony forming units, read-out: MBC99 Day 7 (CFU Assay) MBC99

SMILES: CO[C@H]1/C=C/O[C@@]2(C)Oc3c(C)c(O)c4c(=O)c(c5oc6cccc(OCCCCN7CCNCC7)c6nc-5c4c3C2=O)NC(=O)/C(C)=C\C=C\[C@H](C)[C@H](O)[C@@H](C)[C@@H](O)[C@@H](C)[C@H](OC(C)=O)[C@@H]1C [Compound 5d, (7S,9E,11S,12R,13S,14R,15R,16R,17S,18S,19E,21Z)-2,15,17-Trihydroxy-11-methoxy-3,7,12,14,16,18,22-heptamethyl-6,23,37-trioxo-32-[4-(piperazin-1-yl)butoxy]-8,27,38-trioxa-24,34-diazahexacyclo[23.11.1.1^4,7.0^5,36.0^26,35.0^28,33]octatriaconta-1(36)2,4,9,19,21,25,28,30,32,34-undecaen-13-yl acetate]
- IC50 (E. coli WT RNAP): 0.006 µM
- IC50 [1]: 29 µM
- IC50 [2]: 440 µM
- IC50 (VERO cells (ATCC CRL-81)): > 8 µM
- DPX2 Viability @ 6.25 μM (DPX2 cells): 102%
- DPX2 Viability @ 25 μM (DPX2 cells): 59%

SMILES: CO[C@H]1/C=C/O[C@@]2(C)Oc3c(C)c(O)c4c(=O)c(c5oc6cccc(OCCCCN7CCN(C(=O)CN8CCOCC8)CC7)c6nc-5c4c3C2=O)NC(=O)/C(C)=C\C=C\[C@H](C)[C@H](O)[C@@H](C)[C@@H](O)[C@@H](C)[C@H](OC(C)=O)[C@@H]1C [Compound 5e, (7S,9E,11S,12R,13S,14R,15R,16R,17S,18S,19E,21Z)-2,15,17-Trihydroxy-11-methoxy-3,7,12,14,16,18,22-heptamethyl-32-(4-{4-[2-(morpholin-4-yl)acetyl]piperazin-1-yl}butoxy)-6,23,37-trioxo-8,27,38-trioxa-24,34-diazahexacyclo[23.11.1.1^4,7.0^5,36.0^26,35.0^28,33]octatriaconta-1(36)2,4,9,19,21,25,28(33)29,31,34-undecaen-13-yl acetate]
- IC50 (E. coli WT RNAP): 0.007 µM
- IC50 [1]: 23 µM
- IC50 [2]: > 1000 µM
- IC50 (VERO cells (ATCC CRL-81)): > 8 µM
- MIC90 MABA Rel to RMP (MTB H37Rv ATCC 27294): 1.4
- MIC (MTB H37Rv ATCC 27294): 0.082 µM
- DPX2 Viability @ 6.25 μM (DPX2 cells): 106%
- DPX2 Viability @ 25 μM (DPX2 cells): 83%

SMILES: CO[C@H]1/C=C/O[C@@]2(C)Oc3c(C)c(O)c4c(=O)c(c5oc6cccc(OCc7cccc(CN8CCN(C(=O)Cn9ccnc9)CC8)c7)c6nc-5c4c3C2=O)NC(=O)/C(C)=C\C=C\[C@H](C)[C@H](O)[C@@H](C)[C@@H](O)[C@@H](C)[C@H](OC(C)=O)[C@@H]1C [Compound 11e, (7S,9E,11S,12R,13S,14R,15R,16R,17S,18S,19E,21Z)-2,15,17-Trihydroxy-32-{[3-({4-[2-(1H-imidazol-1-yl)acetyl]piperazin-1-yl}methyl)phenyl]methoxy}-11-methoxy-3,7,12,14,16,18,22-heptamethyl-6,23,37-trioxo-8,27,38-trioxa-24,34-diazahexacyclo[23.11.1.1^4,7.0^5,36.0^26,35.0^28,33]octatriaconta-1(36)2,4,9,19,21,25,28,30,32,34-undecaen-13-yl acetate]
- IC50 (VERO cells (ATCC CRL-81)): > 8 µM
- MIC90 MABA Rel to RMP (MTB H37Rv ATCC 27294): 0.93
- MIC (MTB H37Rv ATCC 27294): 0.048 µM
- MBC99 Day 7 (CFU Assay) MBC99 Rel to RMP (M. tuberculosis H37Rv): 0.15
- MBC (M. tuberculosis H37Rv): 0.02 µM
- DPX2 Viability @ 6.25 μM (DPX2 cells): 105%
- DPX2 Viability @ 25 μM (DPX2 cells): 96%

SMILES: CO[C@H]1/C=C/O[C@@]2(C)Oc3c(C)c(O)c4c(=O)c(c5oc6cc(N7CCN(CC(C)C)CC7)cc(OCc7ccc(CN8CCNCC8)cc7)c6nc-5c4c3C2=O)NC(=O)/C(C)=C\C=C\[C@H](C)[C@H](O)[C@@H](C)[C@@H](O)[C@@H](C)[C@H](OC(C)=O)[C@@H]1C [Compound 17b, (7S,9E,11S,12R,13S,14R,15R,16R,17S,18S,19E,21Z)-2,15,17-Trihydroxy-11-methoxy-3,7,12,14,16,18,22-heptamethyl-30-[4-(2-methylpropyl)piperazin-1-yl]-6,23,37-trioxo-32-({4-[(piperazin-1-yl)methyl]phenyl}methoxy)-8,27,38-trioxa-24,34-diazahexacyclo[23.11.1.1^4,7.0^5,36.0^26,35.0^28,33]octatriaconta-1(36)2,4,9,19,21,25,28,30,32,34-undecaen-13-yl acetate]
- IC50 (VERO cells (ATCC CRL-81)): 7.9 µM
- MIC90 MABA Rel to RMP (MTB H37Rv ATCC 27294): 0.24
- MIC (MTB H37Rv ATCC 27294): < 0.016 µM
- MBC better than that of rifampin (M. tuberculosis H37Rv): ~5 fold
- MBC99 Day 7 (CFU Assay) MBC99 Rel to RMP (M. tuberculosis H37Rv): 0.15
- MBC (M. tuberculosis H37Rv): 0.02 µM
- DPX2 Viability @ 6.25 μM (DPX2 cells): 109%
- DPX2 Viability @ 25 μM (DPX2 cells): 45%

SMILES: CO[C@H]1/C=C/O[C@@]2(C)Oc3c(C)c(O)c4c(=O)c(c5oc6cc(N7CCN(C(=O)c8cccc(-n9ccnc9)c8)CC7)cc(C)c6nc-5c4c3C2=O)NC(=O)/C(C)=C\C=C\[C@H](C)[C@H](O)[C@@H](C)[C@@H](O)[C@@H](C)[C@H](OC(C)=O)[C@@H]1C [Compound 29a, (7S,9E,11S,12R,13S,14R,15R,16R,17S,18S,19E,21Z)-2,15,17-Trihydroxy-30-{4-[3-(1H-imidazol-1-yl)benzoyl]piperazin-1-yl}-11-methoxy-3,7,12,14,16,18,22,32-octamethyl-6,23,37-trioxo-8,27,38-trioxa-24,34-diazahexacyclo[23.11.1.1^4,7.0^5,36.0^26,35.0^28,33]octatriaconta-1(36)2,4,9,19,21,25,28,30,32,34-undecaen-13-yl acetate]
- IC50 (VERO cells (ATCC CRL-81)): > 10 µM
- MIC90 MABA Rel to RMP (MTB H37Rv ATCC 27294): 1.33
- MIC90 (MTB H37Rv ATCC 27294): 0.036 µM
- MBC99 Day 7 (CFU Assay) MBC99 Rel to RMP (M. tuberculosis H37Rv): 0.15
- MBC (M. tuberculosis H37Rv): 0.02 µM
- DPX2 Viability @ 25 μM (DPX2 cells): 149%

SMILES: CO[C@H]1/C=C/O[C@@]2(C)Oc3c(C)c(O)c4c(=O)c(c5oc6cc(N7CCN(CCCO[C@@H]8COc9nc([N+](=O)[O-])cn9C8)CC7)cc(C)c6nc-5c4c3C2=O)NC(=O)/C(C)=C\C=C\[C@H](C)[C@H](O)[C@@H](C)[C@@H](O)[C@@H](C)[C@H](OC(C)=O)[C@@H]1C [Compound 29d, (7S,9E,11S,12R,13S,14R,15R,16R,17S,18S,19E,21Z)-2,15,17-Trihydroxy-11-methoxy-3,7,12,14,16,18,22,32-octamethyl-30-[4-(3-{[(6S)-2-nitro-5H,6H,7H-imidazo[2,1-b][1,3]oxazin-6-yl]oxy}propyl)piperazin-1-yl]-6,23,37-trioxo-8,27,38-trioxa-24,34-diazahexacyclo[23.11.1.1^4,7.0^5,36.0^26,35.0^28,33]octatriaconta-1(36)2,4,9,19,21,25,28,30,32,34-undecaen-13-yl acetate]
- IC50 (VERO cells (ATCC CRL-81)): > 10 µM
- MIC90 MABA Rel to RMP (MTB H37Rv ATCC 27294): 1.37
- MIC90 (MTB H37Rv ATCC 27294): 0.037 µM
- MBC99 Day 7 (CFU Assay) MBC99 Rel to RMP (M. tuberculosis H37Rv): 0.62
- MBC (M. tuberculosis H37Rv): 0.08 µM
- DPX2 Viability @ 6.25 μM (DPX2 cells): 114%
- DPX2 Viability @ 25 μM (DPX2 cells): 101%

SMILES: CO[C@H]1/C=C/O[C@@]2(C)Oc3c(C)c(O)c4c(=O)c(c5oc6cc(C)cc(N7CCN(C(=O)c8cccc(-c9ccccn9)c8)CC7)c6nc-5c4c3C2=O)NC(=O)/C(C)=C\C=C\[C@H](C)[C@H](O)[C@@H](C)[C@@H](O)[C@@H](C)[C@H](OC(C)=O)[C@@H]1C [Compound 30g, (7S,9E,11S,12R,13S,14R,15R,16R,17S,18S,19E,21Z)-2,15,17-Trihydroxy-11-methoxy-3,7,12,14,16,18,22,30-octamethyl-6,23,37-trioxo-32-{4-[3-(pyridin-2-yl)benzoyl]piperazin-1-yl}-8,27,38-trioxa-24,34-diazahexacyclo[23.11.1.1^4,7.0^5,36.0^26,35.0^28,33]octatriaconta-1(36)2,4,9,19,21,25,28,30,32,34-undecaen-13-yl acetate]
- IC50 (VERO cells (ATCC CRL-81)): > 10 µM
- MIC90 MABA Rel to RMP (MTB H37Rv ATCC 27294): 0.96
- MIC90 (MTB H37Rv ATCC 27294): 0.026 µM
- MBC99 Day 7 (CFU Assay) MBC99 Rel to RMP (M. tuberculosis H37Rv): <0.08
- MBC (M. tuberculosis H37Rv): < 0.02 µM
- DPX2 Viability @ 6.25 μM (DPX2 cells): 99%
- DPX2 Viability @ 25 μM (DPX2 cells): 61%

SMILES: CO[C@H]1/C=C/O[C@@]2(C)Oc3c(C)c(O)c4c(=O)c(c5oc6cc(C)cc(N7CCN(C(=O)c8ccc9occc9c8)CC7)c6nc-5c4c3C2=O)NC(=O)/C(C)=C\C=C\[C@H](C)[C@H](O)[C@@H](C)[C@@H](O)[C@@H](C)[C@H](OC(C)=O)[C@@H]1C [Compound 30h, (7S,9E,11S,12R,13S,14R,15R,16R,17S,18S,19E,21Z)-32-[4-(1-Benzofuran-5-carbonyl)piperazin-1-yl]-2,15,17-trihydroxy-11-methoxy-3,7,12,14,16,18,22,30-octamethyl-6,23,37-trioxo-8,27,38-trioxa-24,34-diazahexacyclo[23.11.1.1^4,7.0^5,36.0^26,35.0^28,33]octatriaconta-1(36)2,4,9,19,21,25,28,30,32,34-undecaen-13-yl acetate]
- IC50 (VERO cells (ATCC CRL-81)): > 10 µM
- MIC90 MABA Rel to RMP (MTB H37Rv ATCC 27294): 0.70
- MIC90 (MTB H37Rv ATCC 27294): 0.019 µM
- MBC99 Day 7 (CFU Assay) MBC99 Rel to RMP (M. tuberculosis H37Rv): <0.08
- MBC (M. tuberculosis H37Rv): < 0.02 µM
- DPX2 Viability @ 6.25 μM (DPX2 cells): 100%
- DPX2 Viability @ 25 μM (DPX2 cells): 57%

From patent US20250188092A1, “RIFAMYCIN ANALOGS” (THE REGENTS OF THE UNIVERSITY OF MICHIGAN, priority 2021, published 2025)
